The text below walks through data of patent US20230025435A1, “COMPOSITIONS AND METHODS FOR INCREASING CELLULAR VITALITY AND LONGEVITY AND DECREASING MOLECULAR AGEING” (JUVN3 Holdings, LLC, priority 2020, published 2023).

Common to all, as to format: cell-based
For assay [1], the system named is C2C12 cells. In words: Total antioxidant capacity (Trolox equivalent antioxidant capacity, TEAC) in C2C12 cells with H2O2 (FIG. 5B). The following applies: 24 hours with concomitant 400 uM H2O2, selenium 2 ug/mL, tributyrin 5 ug/mL. The protocol: Treatments and cells. 6-hour and 24-hour cell culture treatments were with one of the following compounds: 1. Control or “vehicle” (DMSO+phosphate-buffered saline only); 2. […]® (nicotinamide riboside (NR)(5 μg/mL); 3. BHB (beta hydroxybutyrate) (30 ug/mL); 4. CBD (cannabidiol) (5 ug/mL); 5. Olive leaf (5 ug/mL); 6. Dynamine (1 ug/mL); 7. […] Tributyrin (5 ug/mL) Treatment materials and methods. C2C12 cells were treated with compounds 1-8 as listed above for 6 hours without hydrogen peroxide (H2O2) (termed “unperturbed cells” throughout); or cells were treated with compounds 1-8 above for 24 hours with a concomitant 400 uM hydrogen peroxide (H2O2). Total antioxidant capacity was assessed using a Trolox equivalent antioxidant capacity (TEAC) assay.

Assay [2] relates to C2C12 cells. In words: Cellular oxidative stress (4HNE assay) in C2C12 cells with H2O2 (FIG. 6C). The following applies: 24 hours with concomitant 400 uM H2O2, BHB 30 ug/mL. The protocol: (§1) Treatments and cells. 6-hour and 24-hour cell culture treatments were with one of the following compounds: 1. Control or “vehicle” (DMSO+phosphate-buffered saline only); 2. Niagen® (nicotinamide riboside (NR)(5 μg/mL); 3. BHB (beta hydroxybutyrate) (30 ug/mL); 4. CBD (cannabidiol) (5 ug/mL); 5. Olive leaf (5 ug/mL); 6. Dynamine (1 ug/mL); 7. Selenium (2 ug/mL); 8. Tributyrin (5 ug/mL)
(§2) Treatment materials and methods. C2C12 cells were treated with compounds 1-8 as listed above for 6 hours without hydrogen peroxide (H2O2) (termed “unperturbed cells” throughout); or cells were treated with compounds 1-8 above for 24 hours with a concomitant 400 uM hydrogen peroxide (H2O2).
Oxidative stress was assessed using the 4HNE assay which is a product of cellular lipid oxidation (see e.g., Am J Physiol Cell Physiol. 2016 Oct. 1; 311(4): C537-C543).

The test system of assay [3] is C2C12 cells. In words: Autophagy flux (LC3II/I ratio) in C2C12 cells co-incubated with H2O2 (FIG. 6A). Conditions: 24 hours with concomitant 400 uM H2O2, BHB 30 ug/mL, CBD 5 ug/mL, selenium 2 ug/mL. The protocol: as §1, §2
The C2C12 line resembles mature muscle cells given that they are multinucleated and are past the rapid growth/proliferation phase.
Autophagy flux (or activity) was assessed by assaying the LC3II/I ratio. This assay has been deemed the “gold standard” in autophagy monitoring (see e.g., Autophagy, 2007 November-December; 3(6):542-5).

As to `CCCC(=O)OCC(COC(=O)CCC)OC(=O)CCC` [tributyrin, Tributyrin], the “total antioxidant capacity (Trolox)” value in assay [1] is on record as “increase (e.g., restore) total antioxidant activity”; in assay [1] (listed as Tributyrin), “increase or restore antioxidant capacity”.

For the compound `CC(O)CC(=O)O` (stereo not drawn) [BHB, beta hydroxybutyrate], the “cellular oxidative stress (4HNE)” value in assay [2] is listed as “decrease cellular oxidative stress”. The “autophagy (LC3II/I ratio)” value in assay [3] was “increased autophagy”.

As for `C=C(C)[C@@H]1CCC(C)=C[C@H]1c1c(O)cc(CCCCC)cc1O` [CBD, cannabidiol], the “autophagy (LC3II/I ratio)” value in assay [3] is recorded as “increased autophagy”.

In the case of `[Se]` [selenium, Selenium], the “total antioxidant capacity (Trolox)” value in assay [1] is recorded as “increase (e.g., restore) total antioxidant activity”; in assay [1] (listed as Selenium), “increase or restore antioxidant capacity”. The “autophagy (LC3II/I ratio)” value in assay [3] is given as “increased autophagy”.
